The text below walks through data of patent US12599672B2, “KRAS proteolysis targeting chimeras” (PAQ Therapeutics Inc., priority 2023, dated 2026).

What all share (format): cell-based
Assay [1] has as its target T1, KRAS G12D (Homo sapiens, UniProt P01116, G12D).
T1 construct: AsPc-1-KRAS (G12D)-HiBit-KI cell (Pharmaron); host or cells: AsPc-1-KRAS (G12D)-HiBit-KI cells (HiBiT knock-in at the endogenous KRAS locus)
Put plainly: KRAS G12D HiBit assay. The conditions noted are these: AsPc-1-KRAS (G12D)-HiBit-KI cell, compound treatment for 24 hours, class symbols; for DC50: absolute DC50. In outline: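 HiBiT luminescence, detected by adding lytic buffer, substrate and LgBiT protein, served as the KRAS G12D read-out. Compounds, serially diluted 3-fold over 10 points from 0.3 mM DMSO stock, were on cells for 24 h; percent inhibition normalized to cells given 0.1% DMSO only.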

For assay [2], the target named is T2, KRAS G12V (Homo sapiens, UniProt P01116, G12V).
T2 construct: SW620-KRAS (G12V)-HiBit-KI cell (Pharmaron); host or cells: SW620-KRAS (G12V)-HiBit-KI cells (HiBiT knock-in at the endogenous KRAS locus)
Put plainly: KRAS G12V HiBit assay. Particulars: SW620-KRAS (G12V)-HiBit-KI cells, compound treatment for 24 hours, class symbols. In outline: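 Luminescence from lytic Nano-Glo HiBiT detection with LgBiT read KRAS G12V levels after 24 h compound exposure. Dilutions were 10-point, 3-fold, from a 0.3 mM DMSO stock. Degradation activity was normalised to cells given 0.1% DMSO alone.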
In general terms: The HiBiT peptide binds its large partner to form an active luciferase.

Assay [3] has as its target T3, KRAS (Homo sapiens, UniProt P01116).
T3 construct: endogenous in cells; host or cells: KE39 (KRAS amplified) cells
Put plainly: KRASamp MSD assay. The conditions noted are these: KE39 (KRAS amplified) cells, treated with test compounds for 24 hr, MSD readout of KRAS degradation. In outline:
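Degradation DC50 derived by curve fitting, with KRAS levels quantified by MSD electrochemiluminescence (capture/detection antibodies, recombinant WT KRAS standard). Lysates prepared from KE39 cells (KRAS amplified) exposed to test compounds for 24 hr.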

Bounds are passed on as bounds.

T3 sequence (P01116 1-188 isoform P01116-2): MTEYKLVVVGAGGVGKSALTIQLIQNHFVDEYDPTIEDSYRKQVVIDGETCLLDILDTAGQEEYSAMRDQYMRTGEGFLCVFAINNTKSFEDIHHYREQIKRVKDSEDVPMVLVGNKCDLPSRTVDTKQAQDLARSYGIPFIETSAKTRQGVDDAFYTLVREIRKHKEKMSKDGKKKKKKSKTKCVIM
T2 sequence (P01116 1-188 isoform P01116-2 G12V): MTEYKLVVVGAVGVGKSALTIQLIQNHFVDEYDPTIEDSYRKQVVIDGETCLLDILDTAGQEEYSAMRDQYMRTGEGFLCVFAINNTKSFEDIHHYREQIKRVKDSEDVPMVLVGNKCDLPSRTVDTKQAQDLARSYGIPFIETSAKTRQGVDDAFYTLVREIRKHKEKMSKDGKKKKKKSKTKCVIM
T1 sequence (P01116 1-188 isoform P01116-2 G12D): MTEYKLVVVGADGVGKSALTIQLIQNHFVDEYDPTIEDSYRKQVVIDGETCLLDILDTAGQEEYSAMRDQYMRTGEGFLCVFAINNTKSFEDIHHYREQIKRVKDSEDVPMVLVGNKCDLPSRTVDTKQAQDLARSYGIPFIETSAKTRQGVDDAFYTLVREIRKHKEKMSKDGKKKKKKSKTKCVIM

Turning to `C#Cc1c(F)ccc2cc(O)cc(-c3ncc4c(N5CCCC(F)(F)C5)nc(OC[C@@]56CCCN5[C@H](COC(=O)N5CCC(CN7CCC(c8ccc9c(c8)n(C)c(=O)n9C8CCC(=O)NC8=O)CC7)CC5)CC6)nc4c3F)c12` (stereo partly drawn) [Compound 124, ((35,7aS)-7a-(((4-(3,3-Difluoropiperidin-1-yl)-7-(8-ethynyl-7-fluoro-3-hydroxynaphthalen-1-yl)-8-fluoropyrido[4,3-d]pyrimidin-2-yl)oxy)methyl)hexahydro-1H-pyrrolizin-3-yl)methyl4-((4-(1-(2,6-dioxopiperidin-3-yl)-3-methyl-2-oxo-2,3-dihydro-1H-benzo[d]imidazol-5-yl)piperidin-1-yl)methyl) piperidine-1-carboxylate], the DC50 in assay [1] was below 100 nM; in assay [2] it was below 10 nM; in assay [3], below 1 nM. In assay [1], this compound came in with a Dmax above 50%.

On to `Cn1c(=O)n(C2CCC(=O)NC2=O)c2ccc(C3CCN(CC4CCN(C(=O)OC[C@@H]5CC[C@]6(COc7nc(N8CCC[C@@](C)(O)C8)c8cnc(-c9cc(O)cc%10ccc(F)c(F)c9%10)c(F)c8n7)CCCN56)CC4)CC3)cc21` (stereo partly drawn) [Compound 410, ((3S,7aS)-7a-(((7-(7,8-difluoro-3-hydroxynaphthalen-1-yl)-8-fluoro-4-((R)-3-hydroxy-3-methylpiperidin-1-yl)pyrido[4,3-d]pyrimidin-2-yl)oxy)methyl)hexahydro-1H-pyrrolizin-3-yl)methyl 4-((4-(1-(2,6-dioxopiperidin-3-yl)-3-methyl-2-oxo-2,3-dihydro-1H-benzo[d]imidazol-5-yl)piperidin-1-yl)methyl)piperidine-1-carboxylate], for which the DC50 in assay [1] was below 100 nM; in assay [2], below 10 nM; in assay [3] it was below 1 nM.

With `CCc1c(F)ccc2cc(O)cc(-c3ccc4c(N5CCC[C@@](C)(O)C5)nc(OC[C@@]56CCCN5[C@H](COC(=O)N5CCC7(CC5)CC(N5CCC(c8ccc9c(c8)n(C)c(=O)n9C8CCC(=O)NC8=O)CC5)C7)CC6)nc4c3F)c12` (stereo partly drawn) [Compound 355, ((3S,7aS)-7a-(((7-(8-ethyl-7-fluoro-3-hydroxynaphthalen-1-yl)-8-fluoro-4-((R)-3-hydroxy-3-methylpiperidin-1-yl)quinazolin-2-yl)oxy)methyl)hexahydro-1H-pyrrolizin-3-yl)methyl 2-(4-(1-(2,6-dioxopiperidin-3-yl)-3-methyl-2-oxo-2,3-dihydro-1H-benzo[d]imidazol-5-yl)piperidin-1-yl)-7-azaspiro[3.5]nonane-7-carboxylate], the DC50 in assay [1] is below 100 nM; in assay [2], below 10 nM; in assay [3], below 1 nM.

For `CCc1c(F)ccc2cc(O)cc(-c3ncc4c(N5CCC[C@@](C)(O)C5)nc(OC[C@@]56CCCN5[C@H](COC(=O)N5CCC(CN7CCC(c8ccc9c(c8)n(C)c(=O)n9C8CCC(=O)NC8=O)C(F)(F)C7)CC5)CC6)nc4c3F)c12` (stereo partly drawn) [Compound 398, ((3S,7aS)-7a-(((7-(8-ethyl-7-fluoro-3-hydroxynaphthalen-1-yl)-8-fluoro-4-((R)-3-hydroxy-3-methylpiperidin-1-yl)pyrido[4,3-d]pyrimidin-2-yl)oxy)methyl)hexahydro-1H-pyrrolizin-3-yl)methyl 4-((4-(1-(2,6-dioxopiperidin-3-yl)-3-methyl-2-oxo-2,3-dihydro-1H-benzo[d]imidazol-5-yl)-3,3-difluoropiperidin-1-yl)methyl)piperidine-1-carboxylate], the values for the DC50 in assay [1], in assay [2] and in assay [3] were below 100 nM, below 10 nM and below 1 nM, respectively.

With `CCc1c(F)ccc2cc(O)cc(-c3ncc4c(N5CCC[C@@H](CO)C5)nc(OC[C@@]56CCCN5[C@H](COC(=O)N5CCC(CN7CCC(c8ccc9c(c8)n(C)c(=O)n9C8CCC(=O)NC8=O)CC7)CC5)CC6)nc4c3F)c12` (stereo partly drawn) [Compound 340, ((3S,7aS)-7a-(((7-(8-ethyl-7-fluoro-3-hydroxynaphthalen-1-yl)-8-fluoro-4-((R)-3-(hydroxymethyl)piperidin-1-yl)pyrido[4,3-d]pyrimidin-2-yl)oxy)methyl)hexahydro-1H-pyrrolizin-3-yl)methyl 4-((4-(1-(2,6-dioxopiperidin-3-yl)-3-methyl-2-oxo-2,3-dihydro-1H-benzo[d]imidazol-5-yl)piperidin-1-yl)methyl)piperidine-1-carboxylate], the DC50 in assay [1] is below 100 nM; in assay [2] it was below 10 nM; in assay [3], below 1 nM.

As for `CCc1c(F)ccc2cc(O)cc(-c3ncc4c(N5CC6CC6C5)nc(OC[C@@]56CCCN5[C@H](COC(=O)N5CCC7(CC5)CC(N5CCC(c8ccc9c(c8)n(C)c(=O)n9C8CCC(=O)NC8=O)CC5)C7)CC6)nc4c3F)c12` (stereo partly drawn) [Compound 346, ((3S,7aS)-7a-(((4-(3-azabicyclo[3.1.0]hexan-3-yl)-7-(8-ethyl-7-fluoro-3-hydroxynaphthalen-1-yl)-8-fluoropyrido[4,3-d]pyrimidin-2-yl)oxy)methyl)hexahydro-1H-pyrrolizin-3-yl)methyl 2-(4-(1-(2,6-dioxopiperidin-3-yl)-3-methyl-2-oxo-2,3-dihydro-1H-benzo[d]imidazol-5-yl)piperidin-1-yl)-7-azaspiro[3.5]nonane-7-carboxylate], the DC50 was below 100 nM in assay [1], 10 to 100 nM in assay [2] and 1 to 10 nM in assay [3].

Consider `CCc1c(F)ccc2cc(O)cc(-c3ncc4c(N5CCC[C@@](C)(O)C5)nc(OC[C@@]56CCCN5[C@H](COC(=O)N5CCC(OCCC#Cc7cccc8c7n(C)c(=O)n8C7CCC(=O)NC7=O)CC5)CC6)nc4c3F)c12` (stereo partly drawn) [Compound 370, ((3S,7aS)-7a-(((7-(8-Ethyl-7-fluoro-3-hydroxynaphthalen-1-yl)-8-fluoro-4-((R)-3-hydroxy-3-methylpiperidin-1-yl)pyrido[4,3-d]pyrimidin-2-yl)oxy)methyl)hexahydro-1H-pyrrolizin-3-yl)methyl4-((4-(1-(2,6-dioxopiperidin-3-yl)-3-methyl-2-oxo-2,3-dihydro-1H-benzo[d]imidazol-4-yl)but-3-yn-1-yl)oxy)piperidine-1-carboxylate], for which the DC50 in assay [1] was below 100 nM; in assay [2], below 10 nM; in assay [3], 1 to 10 nM.

Regarding `CCc1c(F)ccc2cc(O)cc(-c3ncc4c(N5CCC[C@@](C)(O)C5)nc(OCC56CCCN5[C@@H](COC(=O)N5CCC(CN7CCC(c8ccc9c(c8)n(C)c(=O)n9C8CCC(=O)NC8=O)CC7)CC5)CC6)nc4c3F)c12` (stereo partly drawn) [Compound 121, (cis-7a-(((7-(8-Ethyl-7-fluoro-3-hydroxynaphthalen-1-yl)-8-fluoro-4-((R)-3-hydroxy-3-methylpiperidin-1-yl)pyrido[4,3-d]pyrimidin-2-yl)oxy)methyl)hexahydro-1H-pyrrolizin-3-yl)methyl 4-((4-(1-(2,6-dioxopiperidin-3-yl)-3-methyl-2-oxo-2,3-dihydro-1H-benzo[d]imidazol-5-yl)piperidin-1-yl)methyl) piperidine-1-carboxylate], the figures for the DC50 in assay [1], in assay [2] and in assay [3] were below 100 nM, below 10 nM and 1 to 10 nM, respectively.

As for `C#Cc1c(F)ccc2cc(O)cc(-c3ncc4c(N5CCC[C@@](C)(O)C5)nc(OC[C@]56CCCN5[C@H](COC(=O)N5CCC(CN7CCC(c8ccc9c(c8)n(C)c(=O)n9C8CCC(=O)NC8=O)CC7)CC5)CC6)nc4c3F)c12` (some centres unmarked) [Compound 134], the figures for the DC50 in assay [1], in assay [2] and in assay [3] were below 100 nM, below 10 nM and below 1 nM, respectively.

In the case of `CCc1c(F)ccc2cc(O)cc(-c3ncc4c(N5CCC[C@@](C)(O)C5)nc(OC[C@@]56CCCN5[C@H](COC(=O)N5CCC(CN7CCN(c8ccc9c(c8)n(C)c(=O)n9C8CCC(=O)NC8=O)CC7)CC5)CC6)nc4c3F)c12` (stereo partly drawn) [Compound 95, [(3S,8S)-8-[[7-(8-ethyl-7-fluoro-3-hydroxy-1-naphthyl)-8-fluoro-4-[(3R)-3-hydroxy-3-methyl-1-piperidyl]pyrido[4,3-d]pyrimidin-2-yl]oxymethyl]-1,2,3,5,6,7-hexahydropyrrolizin-3-yl]methyl4-[[4-[1-(2,6-dioxo-3-piperidyl)-3-methyl-2-oxo-benzimidazol-5-yl]piperazin-1-yl]methyl]piperidine-1-carboxylate], the DC50 was below 100 nM in assay [1], below 10 nM in assay [2] and below 1 nM in assay [3]. For the same compound, the Dmax in assay [1] was above 50%.

In the case of `CCc1c(F)ccc2cc(O)cc(-c3ncc4c(N5CCC[C@@](C)(O)C5)nc(OC[C@@]56CCCN5[C@H](COC(=O)N5CC7(CC(N8CCC(c9ccc%10c(c9)n(C)c(=O)n%10C9CCC(=O)NC9=O)CC8)C7)C5)CC6)nc4c3F)c12` (stereo partly drawn) [Compound 416, ((3S,7aS)-7a-(((7-(8-ethyl-7-fluoro-3-hydroxynaphthalen-1-yl)-8-fluoro-4-((R)-3-hydroxy-3-methylpiperidin-1-yl)pyrido[4,3-d]pyrimidin-2-yl)oxy)methyl)hexahydro-1H-pyrrolizin-3-yl)methyl 6-(4-(1-(2,6-dioxopiperidin-3-yl)-3-methyl-2-oxo-2,3-dihydro-1H-benzo[d]imidazol-5-yl)piperidin-1-yl)-2-azaspiro[3.3]heptane-2-carboxylate], the DC50 was below 100 nM in assay [1], below 10 nM in assay [2] and below 1 nM in assay [3].
